Test results: US20160205931A1, “SEX PHEROMONE DERIVATIVES, AND METHODS AND USES THEREOF” (Her Majesty the Queen in Right of Canada, as rep. by the …, priority 2015, published 2016)
Blank lines part the entries; values can stand above or below the molecule they belong to.

Legend:
[1] = Release rate of lures; assay type: physicochemical; settings: 25° C.
Method: Traps were baited with one of three treatments: 1) (3Z)-hexenol alone; 2) 3.0 mg dose of (3Z)-lactone+(3Z)-hexenol; or 3) dodecan-12-olide+(3Z)-hexenol. The dodecan-12-olide dose was 3.0 mg or 5.0 mg. A higher dose of the analog was used to attempt to increase its effect on captures of EAB relative to the (3Z)-lactone. (3Z)-Lactone and the analog were each loaded onto rubber septa lures (Wheaton Scientific, Millville, N.J.). (3Z)-Hexenol lures were obtained from Synergy Semiochemicals. Release rates of the 3.0 mg (3Z)-lactone, 3.0 mg and 5.0 mg dodecan-12-olide lures, and (3Z)-hexenol were ˜66 μg/d, ˜60 μg/d and ˜80 μg/d. These values were determined as in Silk et al. 2011, and 50-100 mg/d (by weight loss), respectively, at 25° C. The (3Z)-lactone and analog lures were estimated to maintain sustained and almost constant release rates for a minimum of 6 wk, and thus were not replaced during the experiment. Similarly, (3Z)-hexenol lures were not replaced during the experiment.

[2] = test system: male and female EAB antennae; test: Electroantennography (EAG), puff technique; set-up: species or system Agrilus planipennis; settings: for electroantennogram activity with male or female EABs: compared with controls / with the (3Z)- and (3E)-lactones
Method: Electroantennogram analyses (EAG) were conducted using methods and equipment generally described by Silk et al. in 2007 (Silk P J, et al (2007) Evidence for a male-produced pheromone in Tetropium fuscum (F.) (Coleoptera: Cerambycidae). Naturwissenschaften 94: 697-701). Antennae were excised close to the head and mounted using electrode gel (Spectra 360 electrode gel; Parker, Fairfield, N.J., USA) on an EAG probe (gold) for electrical contact. EAG signals were recorded using Syntech recording and analysis software v. 2.6 (Syntech, Hilversum, The Netherlands).
The (3Z)- and (3E)-lactones, and dodecan-12-olide were tested using the puff technique described by Silk et al. in 2011 (Silk P J, Ryall K, Mayo P, Lemay M, Grant G, Crook D, Cossé A, Fraser I, Sweeney J D, Lyons D B, Pitt D, Scarr T, Magee D (2011) Evidence for a volatile pheromone in Agrilus planipennis Fairmaire (Coleoptera: Buprestidae) that increases attraction to a host foliar volatile. Env Entomol 40: 904-916). Briefly: two microliters of serially diluted solutions (dichloromethane; DCM) of synthetic compounds were applied to filter paper strips (0.5 cm×5 cm, Whatman No. 1). The filter paper strips were placed in 14 cm long Pasteur pipettes, hereafter referred to as stimulus cartridges, after 5 min at room temperature. The stimulus dose tested was 1 μg. Male and female antennae were exposed to single 0.2 s puffs of odor-bearing air at 5 ml/s by placing the tip of a stimulus cartridge into a hole of a glass tube (0.7 cm ID×20 cm), 10 cm from the outlet and 11 cm away from the antennal preparation. Airflow through the glass tube was passed through a water bubbler and set at 10 ml/s. Each antennal preparation was tested with freshly prepared sets of stimuli cartridges using ˜6 male and ˜10 female antennae/treatment and used once for each treatment.
(§1) For the EAG results, male and female EAG responses were submitted to analysis of variance (ANOVA) and mean responses to each of the tested compounds separated using Tukey's test (P<0.05). […] Finally, in the trapping study, numbers of male and female EAB captured among the three treatments were analyzed separately by fitting generalized linear mixed effect models, with block as a random factor, to the Poisson distribution (GLMER function, R Development Core Team 2013). Chi-square tests were used to determine if a significant proportion of the variation in capture of male and female EAB was attributable to treatment. Chi-square tests were considered significant at P=0.05 or less and, if significant, the means separated using the Tukey's contrast option in the GLHT function (R Development Core Team 2013); raw data are presented as means±standard error.

[3] = test system: adult EAB; test: Two-choice Y-tube olfactometer bioassay; assay type: in vivo, Agrilus planipennis; settings: 1 μg stimulus
Method: A Y-tube olfactometer (Analytical Research Systems Inc, Micanopy, Fla., USA) was used to test for short-range attraction of adult EAB to the lactones. […] Each arm was connected to a cylinder that contained the stimulus. Charcoal-filtered air was passed into each arm at a flow rate of 1.2 L/min. Treatments were 1 μg each of (3Z)-lactone, (3E)-lactone, and dodecan-12-olide. Each stimulus was diluted in dichloromethane, placed on a strip of filter paper, and given 1 min for the solvent to evaporate before being placed in the olfactometer. A filter paper with only solvent (control) was placed in the other arm of the olfactometer. The apparatus was rinsed with acetone after each treatment, and the arm attached to the test stimulus was randomized between replicates. For each trial, a single EAB (male or female) was given 10 min to choose between the two stimuli. A choice was recorded when the beetle passed a “finish line”, 7 cm beyond the branching point of each arm. […] Beetles were 8-14 d old, and 18-23 beetles were used per treatment.
as §1

[4] = test system: EAB; test: Field trapping studies, dark green sticky prism traps co-baited with (3Z)-hexenol; assay type: in vivo, Agrilus planipennis
Method: Three trapping experiments were conducted to test the effects of (3Z)-lactone and dodecan-12-olide on mean captures of EAB on dark green sticky prism traps using protocols discussed by Francese et al. in 2010 (Francese J A, Crook D J, Fraser I, Lance D A, A. J. Sawyer A J, Mastro V C (2010a) Optimization of trap color for the emerald ash borer, Agrilus planipennis (Coleoptera: Buprestidae). J Econ Entomol 103: 1235-1241) co-baited with (3Z)-hexenol. Urban street trees were used: trees were 20-40 cm in diameter, and 10-16 m in height. […] Dark green prism sticky traps (0.30×25.00×58.75 cm) (Synergy Semiochemicals Corp., Burnaby, British Columbia) were used in all field trials. Traps were spaced˜25 m apart, and lure treatments replicated in a randomized complete block design. Traps were deployed using either a limb hook over a lower to mid-canopy branch or a single rope over a mid-canopy branch. In both years, traps were checked every 2 wk and all EAB were collected, counted, and sexed.
Traps were baited with one of three treatments: 1) (3Z)-hexenol alone; 2) 3.0 mg dose of (3Z)-lactone+(3Z)-hexenol; or 3) dodecan-12-olide+(3Z)-hexenol. The dodecan-12-olide dose was 3.0 mg or 5.0 mg. A higher dose of the analog was used to attempt to increase its effect on captures of EAB relative to the (3Z)-lactone. (3Z)-Lactone and the analog were each loaded onto rubber septa lures (Wheaton Scientific, Millville, N.J.). (3Z)-Hexenol lures were obtained from Synergy Semiochemicals. […] These values were determined as in Silk et al. 2011, and 50-100 mg/d (by weight loss), respectively, at 25° C. […]
For the EAG results, male and female EAG responses were submitted to analysis of variance (ANOVA) and mean responses to each of the tested compounds separated using Tukey's test (P<0.05). […] Finally, in the trapping study, numbers of male and female EAB captured among the three treatments were analyzed separately by fitting generalized linear mixed effect models, with block as a random factor, to the Poisson distribution (GLMER function, R Development Core Team 2013). […]

release rate of lure ([1]; by weight loss): 50000 to 100000 µg/day
SMILES: CC/C=C\CCO [(3Z)-hexenol, reference compound]

SMILES: O=C1C/C=C/CCCCCCCCO1 [(3E)-lactone, (3E)-dodecen-12-olide, reference compound]
electroantennogram activity with male or female EABs [2]: active
proportion of the beetles that chose the stimulus arm ([3]; about 25% chose the control, no-choice beetles excluded, sex not given): about 75%

SMILES: O=C1C/C=C\CCCCCCCCO1 [(3Z)-lactone, (3Z)-dodecen-12-olide, reference compound]
electroantennogram activity with male or female EABs [2]: active

release rate of lure ([1]; 3.0 mg on rubber septa lure): ~60 µg/day
release rate of lure ([1]; 5.0 mg on rubber septa lure): ~80 µg/day
SMILES: O=C1CCCCCCCCCCCO1 [dodecan-12-olide]
females captured vs the other two treatments ([4]; FIG. 7a, 3 mg per lure, co-baited with (3Z)-hexenol): significantly more females were captured
females captured vs (3Z)-hexenol alone ([4]; FIG. 7b, dodecan-12-olide 5 mg, (3Z)-lactone 3 mg per lure, P<0.01): more females were captured
activity relative to the natural (3Z)-lactone under comparable conditions ([4]; field trial, 3 mg per lure, male captures): about 85%
mean EAG responses of male and female EAB antennae ([2]; 1 μg source concentration, vs solvent control (dichloromethane), responses to the three compounds not significantly different from each other (Tukey's), FIG. 4): significantly greater than those to the solvent control
electroantennogram activity with male or female EABs [2]: comparable to the corresponding electroantennogram activity both the natural (3Z)-lactone and the (3E)-lactone analog
attraction of female EAB to stimulus vs solvent control ([3]; females, 10 min choice, chi-square vs 1:1, FIG. 6): attracted
attraction of male EAB to stimulus vs solvent control ([3]; males, 10 min choice, chi-square vs 1:1, FIG. 5): attracted

SMILES: O=C1CCCCCCCCCCCCCCO1 [pentadecan-15-olide, reference compound]
electroantennogram activity with male or female EABs [2]: not significantly different from the controls

SMILES: O=C1/C=C/CCCCCCCCCO1 [2E-dodecan-12-olide]
electroantennogram activity with male or female EABs [2]: not significantly different from the controls
